Measured values from paper PMC8466554, “Heteroaryl-Ethylenes as New Lead Compounds in the Fight against High Priority Bacterial Strains” (Antibiotics, 2021).
Values joined by “and” are separate entries in the source; they are usually repeats but may differ in a detail not shown here. Equal values may be shown once. Read-outs that look alike come from different tables or passages of the source.

Tests used:
S.aureus Mu50-VISA = test: MIC and MBC microtiter plate assay; format: cell-based, Staphylococcus aureus
S.aureus USA300-CAMRSA = test: MIC and MBC microtiter plate assay; format: cell-based, Staphylococcus aureus
S.aureus ATCC29213-MSSA = test: MIC and MBC microtiter plate assay; format: cell-based, Staphylococcus aureus
S.aureus ATCC12598-MSSA = test: MIC and MBC microtiter plate assay, also with different inocula; format: cell-based, Staphylococcus aureus
[1] = system: E. faecalis ATCC51299-VRE; test: as above; format: cell-based
[2] = system: E. faecalis ATCC29212-VSE; test: MIC and MBC microtiter plate assay; format: cell-based
A. baumannii ATCC17978 = test: MIC and MBC microtiter plate assay, also with different inocula; format: cell-based, Acinetobacter baumannii
E. coli ATCC25922 = test: as above; format: cell-based, Escherichia coli
P. aeruginosa ATCC27853 = test: MIC microtiter plate assay; format: cell-based, Pseudomonas aeruginosa
K. pneumoniae ATCC700603 = test: MIC microtiter plate assay; format: cell-based, Klebsiella pneumoniae
[3] = system: K. pneumoniae ATCC BAA-2814; test: MIC microtiter plate assay; format: cell-based, Klebsiella pneumoniae; details: K. pneumoniae ATCC BAA-2814 (MDR strain)
[4] = system: Gram-positive control strains; test: MIC and MBC, summary over Gram-positive control strains; format: cell-based, S. aureus and Enterococcus spp.
[5] = system: Gram-positive and Gram-negative ATCC strains; test: MIC and MBC, summary over Gram-positive and Gram-negative strains; format: cell-based; details: bactericidal effect defined as MBC/MIC ≤ 4
CaCo-2 cells = test: MTT cytotoxicity assay; format: cell-based, human; details: 24 h of incubation relative to untreated controls
Description: To evaluate the biological activity of the PBn series, compounds were screened for toxicity against the colon-rectal cancer cell line CaCo-2 (ATCC HTB-37). These human cancer cells were treated with solutions of the compounds at decreasing concentrations, starting from 100 μM up to 0.01 μM. The reference compound used for these assays was 5-Fluorouracil (5-Fu), a pyrimidine analogue belonging to the family of antimetabolite. […] Briefly, human colorectal adenocarcinoma cells (CaCo-2 HTB-37^TM Colorectal Adenocarcinoma Human, American Type Culture Collection, Manassas, VA, USA) were grown in Dulbecco’s MEM (DMEM) with 10% heat-inactivated fetal bovine serum, 2 mM L-Alanyl-L-Glutamine, penicillin-streptomycin (50 units-50 μg for mL) and incubated at 37 °C in a humidified atmosphere of 5% CO2, 95% air. CaCo-2 cells were plated in 96 well pates and incubated at 37 °C. The PBn series compounds and 5-FU were prepared as a 1 mM solution in 10 mL with 0.01% DMSO. Then, 24 h after plating, cells were treated with 20 μL of each solution. Untreated cells were used as controls. […] The results were read on a multiwell scanning spectrophotometer (AF2200 plate reader, Eppendorf, Milan, Italy), using a wavelength of 569 nm.

[6] = S.aureus ATCC12598-MSSA, value in brackets
[7] = E. faecalis ATCC51299-VRE, value in brackets
[8] = A. baumannii ATCC17978, value in brackets

- MIC (S.aureus Mu50-VISA): 0.25 µg/mL
- MIC (S.aureus Mu50-VISA; value in brackets): 0.49 µM
- MIC (S.aureus USA300-CAMRSA): 0.25 µg/mL
- MIC (S.aureus USA300-CAMRSA; value in brackets): 0.49 µM
- MIC (S.aureus ATCC29213-MSSA): 0.25 µg/mL
- MIC (S.aureus ATCC29213-MSSA; value in brackets): 0.49 µM
- MIC (S.aureus ATCC12598-MSSA; S. aureus ATCC12598, inoculum 1.00101 (1 × 10^1 CFU/mL)): < 0.015 mg/L and < 0.03 μM
- MIC (S.aureus ATCC12598-MSSA; S. aureus ATCC12598, inoculum 1.00102 (1 × 10^2 CFU/mL)): < 0.015 mg/L and < 0.03 μM
- MIC (S.aureus ATCC12598-MSSA; S. aureus ATCC12598, inoculum 1.00103 (1 × 10^3 CFU/mL)): < 0.03 μM and < 0.015 mg/L
- MIC (S.aureus ATCC12598-MSSA; S. aureus ATCC12598, inoculum 1.00104 (1 × 10^4 CFU/mL)): 0.03 mg/L and 0.06 μM
- MIC (S.aureus ATCC12598-MSSA; S. aureus ATCC12598, inoculum 1.00105 (1 × 10^5 CFU/mL, standard)): 0.25 mg/L and 0.49 μM
- MIC (S.aureus ATCC12598-MSSA; S. aureus ATCC12598, inoculum 1.00106 (1 × 10^6 CFU/mL)): 0.25 mg/L and 0.49 μM
- MIC (S.aureus ATCC12598-MSSA; S. aureus ATCC12598, inoculum 1.00107 (1 × 10^7 CFU/mL)): 4 mg/L and 7.82 μM
- MIC (S.aureus ATCC12598-MSSA; S.aureus ATCC12598-MSSA): 0.25 mg/L
- MIC (S.aureus ATCC12598-MSSA; [6]): 0.49 µM
- MIC ([1]; E. faecalis ATCC51299-VRE): 0.5 mg/L
- MIC [1, 7]: 0.98 µM
- MIC ([1]; E. faecalis ATCC51299, inoculum 1.00101 (1 × 10^1 CFU/mL)): 0.06 mg/L and 0.12 μM
- MIC ([1]; E. faecalis ATCC51299, inoculum 1.00102 (1 × 10^2 CFU/mL)): 0.25 mg/L
- MIC ([1]; E. faecalis ATCC51299, inoculum 1.00103 (1 × 10^3 CFU/mL)): 0.12 mg/L
- MIC ([1]; E. faecalis ATCC51299, inoculum 1.00104 (1 × 10^4 CFU/mL)): 0.12 mg/L and 0.24 μM
- MIC ([1]; E. faecalis ATCC51299, inoculum 1.00105 (1 × 10^5 CFU/mL, standard)): 0.5 mg/L and 0.98 μM
- MIC ([1]; E. faecalis ATCC51299, inoculum 1.00106 (1 × 10^6 CFU/mL)): 0.5 mg/L and 0.98 μM
- MIC ([1]; E. faecalis ATCC51299, inoculum 1.00107 (1 × 10^7 CFU/mL)): 0.5 mg/L and 0.98 μM
- MIC [2]: 0.5 µg/mL
- MIC ([2]; value in brackets): 0.98 µM
- MIC (A. baumannii ATCC17978; A. baumannii ATCC17978): 0.25 mg/L
- MIC (A. baumannii ATCC17978; A. baumannii ATCC 17978, inoculum 1.00101 (1 × 10^1 CFU/mL)): < 0.25 mg/L and < 0.49 μM
- MIC (A. baumannii ATCC17978; A. baumannii ATCC 17978, inoculum 1.00102 (1 × 10^2 CFU/mL)): < 0.25 mg/L and < 0.49 μM
- MIC (A. baumannii ATCC17978; A. baumannii ATCC 17978, inoculum 1.00103 (1 × 10^3 CFU/mL)): < 0.49 μM and < 0.25 mg/L
- MIC (A. baumannii ATCC17978; A. baumannii ATCC 17978, inoculum 1.00104 (1 × 10^4 CFU/mL)): 0.25 mg/L and 0.49 μM
- MIC (A. baumannii ATCC17978; A. baumannii ATCC 17978, inoculum 1.00105 (1 × 10^5 CFU/mL)): 0.25 mg/L and 0.49 μM
- MIC (A. baumannii ATCC17978; A. baumannii ATCC 17978, inoculum 1.00106 (1 × 10^6 CFU/mL)): 0.49 µM
- MIC (A. baumannii ATCC17978; A. baumannii ATCC 17978, inoculum 1.00107 (1 × 10^7 CFU/mL)): 1 mg/L and 1.96 μM
- MIC (A. baumannii ATCC17978; [8]): 0.49 µM
- MIC (E. coli ATCC25922): 1 mg/L
- MIC (E. coli ATCC25922; inoculum 1.00101 (1 × 10^1 CFU/mL)): 0.5 mg/L and 0.98 μM
- MIC (E. coli ATCC25922; inoculum 1.00102 (1 × 10^2 CFU/mL)): 0.5 mg/L and 0.98 μM
- MIC (E. coli ATCC25922; inoculum 1.00103 (1 × 10^3 CFU/mL)): 0.5 mg/L and 0.98 μM
- MIC (E. coli ATCC25922; inoculum 1.00104 (1 × 10^4 CFU/mL)): 0.5 mg/L and 0.98 μM
- MIC (E. coli ATCC25922; inoculum 1.00105 (1 × 10^5 CFU/mL)): 1 mg/L and 1.96 μM
- MIC (E. coli ATCC25922; inoculum 1.00106 (1 × 10^6 CFU/mL)): 1 mg/L and 1.96 μM
- MIC (E. coli ATCC25922; inoculum 1.00107 (1 × 10^7 CFU/mL)): 2 mg/L and 3.91 μM
- MIC (E. coli ATCC25922; value in brackets): 1.96 µM
- MIC (P. aeruginosa ATCC27853): 64 µg/mL
- MIC (P. aeruginosa ATCC27853; value in brackets): 125.14 µM
- MIC (K. pneumoniae ATCC700603): > 128 µg/mL
- MIC (K. pneumoniae ATCC700603; value in brackets): > 250.27 µM
- MIC [3]: 64 µg/mL
- MIC ([3]; value in brackets): 125.14 µM
- comparison between MIC and MBC values ([4]; Gram-positive control strains): three values of difference
- MIC ([4]; over the Gram-positive control strains (S. aureus and Enterococcus spp.)): ≤ 16 µg/mL
SMILES: CN(C)c1ccc(/C=C/c2cccc(/C=C/c3ccc(N(C)C)cc3)[n+]2C)cc1.[I-] [PB4]
- MBC (S.aureus Mu50-VISA): 2 µg/mL
- MBC (S.aureus Mu50-VISA; value in brackets): 3.91 µM
- MBC (S.aureus USA300-CAMRSA): 2 µg/mL
- MBC (S.aureus USA300-CAMRSA; value in brackets): 3.91 µM
- MBC (S.aureus ATCC29213-MSSA): 2 µg/mL
- MBC (S.aureus ATCC29213-MSSA; value in brackets): 3.91 µM
- MBC (S.aureus ATCC12598-MSSA; S.aureus ATCC12598-MSSA): 2 µg/mL
- MBC (S.aureus ATCC12598-MSSA; [6]): 3.91 µM
- MBC ([1]; E. faecalis ATCC51299-VRE): 4 µg/mL
- MBC [1, 7]: 7.82 µM
- MBC [2]: 4 µg/mL
- MBC ([2]; value in brackets): 7.82 µM
- MBC (A. baumannii ATCC17978; A. baumannii ATCC17978): 0.5 µg/mL
- MBC (A. baumannii ATCC17978; [8]): 0.98 µM
- MBC (E. coli ATCC25922): 4 µg/mL
- MBC (E. coli ATCC25922; value in brackets): 7.82 µM
- MBC/MIC [5]: ≤ 4
- IC50 (CaCo-2 cells): 319 nM and 320 nM
